Tests used:
[1] = system: Plasmodium falciparum (Fab-9); assay: Microscopic parasitaemia, chloroquine sensitive strain Fab-9 (reversal of chloroquine resistance); format: cell-based; settings: for Percentage red blood cells infected with P. falciparum (Fab-9): 24 h
Procedure: The activity of riminophenazines to reverse chloroquine resistance in Plasmodium falciparum was tested in the following manner:
A preliminary series of experiments were carried out using two laboratory strains of P. falciparum (RB-1 and Fab-9). These strains were obtained from the Medical Research Council, Durban, where they were characterised as being either mildly resistant or sensitive to chloroquine. The isolates were maintained in suspension culture in known manner (as described by Freese J A, Markus M B and Golenser J, 1991; Bulletin of the World Health Organization 69: 707-712).
Infected erythrocytes were diluted with human O-positive red blood cells to a parasitaemia of 0.2-0.9% and suspended to 3% in RPMI containing 44 mg/l hypoxanthine and 10% human type O serum. Aliquots (100 μl) of the suspension were dispensed into the wells of 96-well microtitre plates. To these suspensions 100 μl of the medium were added containing either chloroquine or B669 alone or in combination. The final drug concentrations were 31, 62, 125, 250 500 and 1000 nM for chloroquine and 0.125, 0.25, 0.5 and 1.0 μg/ml for B669. Relevant solvent controls were included. The plates were incubated for 24 hours at 38° C. in a desiccator gassed with 5% O2, 5% CO2 and 90% N2. Thin blood smears were prepared from each well, stained with Giemsa stain and the percentage of red blood cells infected by at least one parasite determined microscopically.

[2] = system: Plasmodium falciparum (RB-9); assay: 3H-hypoxanthine uptake, chloroquine resistant strain (RB-9 [sic]); format: cell-based; settings: for PERCENTAGE INHIBITION (3H-hypoxanthine uptake): RB-9 (so in the source)
Procedure: (§1) The following experiment was done to confirm previous results which were obtained microscopically and details of which are set out in Example 1.
(§2) For this experiment the same two strains of P. falciparum, as used in Example 1 (RB-1 and Fab-9) were again used. Infected erythrocytes were diluted with human O-positive red blood cells to a parasitaemia of 0.2-0.9% and suspended to 3% in RPMI containing 44 mg/l hypxanthine and 10% human type serum. Aliquots (100 μl) of the suspension were dispensed into the wells of 96-well microtitre plates. To these suspensions 100 μl of the medium were added containing either chloroquine or B669 alone or a combination of chloroquine and B669. Relevant solvent controls were included. Negative control wells were also included containing uninfected red blood cells. The plates were incubated at 38° C. in a desiccator gassed with 5% O2, 5% CO2 and 90% N2. After 24 hours 100 μl culture medium of each well was replaced with […] of hypoxathine--free medium containing 10% human serum and 0,5μ Ci^3 H-hypoxanthine and incubated for a further 18 hours. The contents of the wells were then harvested on to glass fibre filters. The filters were washed with distilled water, dried, haemoglobin dissolved in a sodium bicarbonate solution and placed in scintillation vials containing 4 ml scintillation fluid and counted for 5 min in a liquid scintillation counter.
(§3) The percentage inhibition was calculated as follows: [formula] where CPM was the mean of two values of counts per minute for each treatment.

P. falciparum (RB-1) = assay: Direct antimalarial activity, flow cytometry, strain RB-1; format: cell-based, Plasmodium falciparum
Procedure: To investigate the direct antimalarial activity of the riminophenazines B669, B4100, B4103, B4112, B4121, B4158 and B4169 against a laboratory strain of P. falciparum the following experiment was done:
A laboratory strain of P. falciparum (RB-1; obtained from Dr B L Sharp, National Malaria Research Programme, MRC, Durban) was maintained.
For these experiments malaria cultures of haematocrit 5.0% and initial parasitemia 2.0% were used. The malaria infected erythrocytes (ring stage) were incubated in microtitre plates with serial dilutions of B669, B4100, B4103, B4112, B4121, B4158 and B4169 (0.125-2 μg/ml) for 48 hours and processed for analysis on the flow cytometer as described in Example 3.

[3] = system: Plasmodium falciparum (Fab-9); assay: 3H-hypoxanthine uptake, chloroquine sensitive strain Fab-9; format: cell-based; settings: read-out: PERCENTAGE INHIBITION (3H-hypoxanthine uptake)
[4] = system: Plasmodium falciparum (Fab-9); assay: as above; format: cell-based; settings: for PERCENTAGE INHIBITION (3H-hypoxanthine uptake): Fab-9
Procedure: as §1, §2, §3

[5] = B669 0.125 μg/ml + chloroquine 31 nM
[6] = B669 0.125 μg/ml + chloroquine 500 nM
[7] = B669 0.25 μg/ml + chloroquine 31 nM
[8] = B669 0.25 μg/ml + chloroquine 125 nM
[9] = B669 0.5 μg/ml + chloroquine 125 nM
[10] = B669 1.0 μg/ml + chloroquine 31 nM
[11] = B669 1.0 μg/ml + chloroquine 125 nM
[12] = Plasmodium falciparum, read-out: PERCENTAGE INHIBITION (3H-hypoxanthine uptake)
[13] = B669 0.125 μg/ml + chloroquine 62 nM
[14] = B669 0.125 μg/ml + chloroquine 250 nM
[15] = B669 0.125 μg/ml + chloroquine 1000 nM
[16] = B669 0.25 μg/ml + chloroquine 62 nM
[17] = B669 0.25 μg/ml + chloroquine 250 nM
[18] = B669 0.25 μg/ml + chloroquine 500 nM
[19] = B669 0.25 μg/ml + chloroquine 1000 nM
[20] = B669 0.5 μg/ml + chloroquine 62 nM
[21] = B669 0.5 μg/ml + chloroquine 250 nM
[22] = B669 0.5 μg/ml + chloroquine 500 nM
[23] = B669 0.5 μg/ml + chloroquine 1000 nM
[24] = B669 1.0 μg/ml + chloroquine 62 nM
[25] = B669 1.0 μg/ml + chloroquine 250 nM
[26] = B669 1.0 μg/ml + chloroquine 500 nM
[27] = B669 1.0 μg/ml + chloroquine 1000 nM

c1ccc(Nc2cc3nc4ccccc4n(-c4ccccc4)c-3cc2=NC2CCCCC2)cc1 [Compound B669, N,5-bis(phenyl)-3,5-dihydro-3-(cyclohexylimino)-2-phenazinamine]
Percentage red blood cells infected with P. falciparum (Fab-9) [1, 5]: 3.9% | Percentage red blood cells infected with P. falciparum (Fab-9) [1, 6]: 0.9% | Percentage red blood cells infected with P. falciparum (Fab-9) ([1]; B669 0.125 μg/ml alone): 4.0% | Percentage red blood cells infected with P. falciparum (Fab-9) [1, 7]: 3.1% | Percentage red blood cells infected with P. falciparum (Fab-9) [1, 8]: 2.9% | Percentage red blood cells infected with P. falciparum (Fab-9) ([1]; B669 0.25 μg/ml + chloroquine 500 nM, *parasites morphologically abnormal): 0.1% | Percentage red blood cells infected with P. falciparum (Fab-9) ([1]; B669 0.25 μg/ml alone): 4.4% | Percentage red blood cells infected with P. falciparum (Fab-9) ([1]; B669 0.5 μg/ml + chloroquine 31 nM, *parasites morphologically abnormal): 2.7% | Percentage red blood cells infected with P. falciparum (Fab-9) [1, 9]: 3.0% | Percentage red blood cells infected with P. falciparum (Fab-9) ([1]; B669 0.5 μg/ml + chloroquine 500 nM, *parasites morphologically abnormal): 0.1% | Percentage red blood cells infected with P. falciparum (Fab-9) ([1]; B669 0.5 μg/ml alone): 3.0% | Percentage red blood cells infected with P. falciparum (Fab-9) [1, 10]: 2.9% | Percentage red blood cells infected with P. falciparum (Fab-9) [1, 11]: 0.9% | Percentage red blood cells infected with P. falciparum (Fab-9) ([1]; B669 1.0 μg/ml + chloroquine 500 nM, *parasites morphologically abnormal): 0.1% | Percentage red blood cells infected with P. falciparum (Fab-9) ([1]; B669 1.0 μg/ml alone, *parasites morphologically abnormal): 4.1% | direct effect on parasite morphology ([1]; B669 alone 1.0 μg/ml): morphological deterioration of the parasites was observed | percentage parasitaemia versus untreated control systems ([1]; B669 alone 1.0 μg/ml): did not differ from the untreated control systems | effect on sensitivity of chloroquine sensitive strain to chloroquine ([1]; microscopy): did not increase the sensitivity | increase of sensitivity to chloroquine, chloroquine resistant strain ([2]; 250 nM chloroquine, 0.125-0.5 μg/ml B669): up to three fold | increase of sensitivity to chloroquine, chloroquine resistant strain ([2]; 125 μM (so in the source) chloroquine, 0.5 and 1.0 μg/ml B669): up to ten fold | inhibition at 0.125 µg/mL [2, 12]: 0% | inhibition at 0.25 µg/mL [2, 12]: 0% | inhibition at 0.5 µg/mL [2, 12]: 0% | inhibition at 1 µg/mL [2, 12]: 0% | PERCENTAGE INHIBITION (3H-hypoxanthine uptake) [2, 5]: 15.2% | PERCENTAGE INHIBITION (3H-hypoxanthine uptake) [2, 13]: 12.2% | PERCENTAGE INHIBITION (3H-hypoxanthine uptake) [2, 14]: 100% | PERCENTAGE INHIBITION (3H-hypoxanthine uptake) [2, 6]: 100% | PERCENTAGE INHIBITION (3H-hypoxanthine uptake) [2, 15]: 100% | PERCENTAGE INHIBITION (3H-hypoxanthine uptake) [2, 16]: 26.4% | PERCENTAGE INHIBITION (3H-hypoxanthine uptake) [2, 17]: 100% | PERCENTAGE INHIBITION (3H-hypoxanthine uptake) [2, 18]: 98.8% | PERCENTAGE INHIBITION (3H-hypoxanthine uptake) [2, 19]: 95% | PERCENTAGE INHIBITION (3H-hypoxanthine uptake) [2, 20]: 16.6% | PERCENTAGE INHIBITION (3H-hypoxanthine uptake) [2, 9]: 92% | PERCENTAGE INHIBITION (3H-hypoxanthine uptake) [2, 21]: 95% | PERCENTAGE INHIBITION (3H-hypoxanthine uptake) [2, 22]: 100% | PERCENTAGE INHIBITION (3H-hypoxanthine uptake) [2, 23]: 100% | PERCENTAGE INHIBITION (3H-hypoxanthine uptake) [2, 10]: 58.6% | PERCENTAGE INHIBITION (3H-hypoxanthine uptake) [2, 24]: 100% | PERCENTAGE INHIBITION (3H-hypoxanthine uptake) [2, 11]: 100% | PERCENTAGE INHIBITION (3H-hypoxanthine uptake) [2, 25]: 100% | PERCENTAGE INHIBITION (3H-hypoxanthine uptake) [2, 26]: 100% | PERCENTAGE INHIBITION (3H-hypoxanthine uptake) [2, 27]: 100% | effects of the experimental drug at low chloroquine concentrations ([2]; chloroquine 31 and 62 nM): Effects of the experimental drug was also seen | inhibition at 0.5 µg/mL (P. falciparum (RB-1); Plasmodium falciparum, 0.5 μg/ml, 48 h, FIG. 2, read-out: inhibition of growth of P. falciparum): > 50% | activity against the malaria microorganism Plasmodium falciparum (P. falciparum (RB-1); summary statement): good activity | inhibition at 0.125 µg/mL [3]: 29.8% | inhibition at 0.25 µg/mL [3]: 10.4% | inhibition at 0.5 µg/mL [3]: 41.7% | inhibition at 1 µg/mL [3]: 46.6% | effect on sensitivity of chloroquine sensitive strain to chloroquine ([4]; 3H-hypoxanthine uptake): did not increase the sensitivity | sensitivity of chloroquine sensitive strain to B669 alone ([4]; B669 alone 0.125-1.0 μg/ml): sensitive to B669 alone | PERCENTAGE INHIBITION (3H-hypoxanthine uptake) [4, 5]: 12.9% | PERCENTAGE INHIBITION (3H-hypoxanthine uptake) [4, 13]: 7.4% | PERCENTAGE INHIBITION (3H-hypoxanthine uptake) ([4]; B669 0.125 μg/ml + chloroquine 125 nM): 68.3% | PERCENTAGE INHIBITION (3H-hypoxanthine uptake) [4, 14]: 81.4% | PERCENTAGE INHIBITION (3H-hypoxanthine uptake) [4, 6]: 100% | PERCENTAGE INHIBITION (3H-hypoxanthine uptake) [4, 15]: 100% | PERCENTAGE INHIBITION (3H-hypoxanthine uptake) [4, 7]: 21.0% | PERCENTAGE INHIBITION (3H-hypoxanthine uptake) [4, 16]: 0% | PERCENTAGE INHIBITION (3H-hypoxanthine uptake) [4, 8]: 34.9% | PERCENTAGE INHIBITION (3H-hypoxanthine uptake) [4, 17]: 85.5% | PERCENTAGE INHIBITION (3H-hypoxanthine uptake) [4, 18]: 100% | PERCENTAGE INHIBITION (3H-hypoxanthine uptake) [4, 19]: 100% | PERCENTAGE INHIBITION (3H-hypoxanthine uptake) ([4]; B669 0.5 μg/ml + chloroquine 31 nM): 60.5% | PERCENTAGE INHIBITION (3H-hypoxanthine uptake) [4, 20]: 91.7% | PERCENTAGE INHIBITION (3H-hypoxanthine uptake) [4, 9]: 93.6% | PERCENTAGE INHIBITION (3H-hypoxanthine uptake) [4, 21]: 100% | PERCENTAGE INHIBITION (3H-hypoxanthine uptake) [4, 22]: 100% | PERCENTAGE INHIBITION (3H-hypoxanthine uptake) [4, 23]: 100% | PERCENTAGE INHIBITION (3H-hypoxanthine uptake) [4, 10]: 98.8% | PERCENTAGE INHIBITION (3H-hypoxanthine uptake) [4, 24]: 95.9% | PERCENTAGE INHIBITION (3H-hypoxanthine uptake) [4, 11]: 100% | PERCENTAGE INHIBITION (3H-hypoxanthine uptake) [4, 25]: 100% | PERCENTAGE INHIBITION (3H-hypoxanthine uptake) [4, 26]: 100% | PERCENTAGE INHIBITION (3H-hypoxanthine uptake) [4, 27]: 100% | direct anti-malaria activity ([4]; especially chloroquine sensitive strain): Direct anti-malaria activity

Reference: patent US5763442A, “Anti-parasitic activity” (Universiteit Van Pretoria, priority 1995, dated 1998)
